This note sets out measurements from US20260138959A1, “QUINAZOLINE DERIVATIVE COMPOUND AND USE THEREOF” (VORONOI INC., priority 2021, published 2026).

The target of test [1] is T1, human PDGFR-β(wt) (Homo sapiens, UniProt P09619).
T1 construct: purchased Signalchem P13-11G
Kind of test: Enzyme inhibitory activity, ADP-Glo kinase assay, PDGFR-β(wt). Type of test: biochemical. The settings on record: read-out: PDGFR-β (IC50 class). As to the method:
In order to evaluate the inhibitory activity of the compounds synthesized according to the above examples on PDGFR-α(wt), PDGFR-β(wt), c-KIT(wt), and c-KIT(D816V) kinases, the following method was performed. The compounds of examples were reacted with purified human PDGFR-α(wt) (Signalchem #P12-18G) enzyme, human PDGFR-β(wt) (Signalchem #P13-11G) enzyme, human c-KIT(wt) (Signalchem #K06-11BG) enzyme, human c-KIT(D816V) (Signalchem #C06-12LG) enzyme, and the enzyme inhibitory abilities were evaluated by the following method.
The reaction buffer was used as a composition of 40 mM Tris-HCl pH7.4, 20 mM MgCl2, 0.5 mg/ml BSA, 50 μM DTT, and the reactions of all the tests were carried out on the reaction buffer. The compound was diluted in 12 steps using a serial dilution method from a 10 mM DMSO stock, and the enzyme activity was measured at a final compound concentration of 10˜0.00005645 μM. During the test, the enzyme activity was confirmed using in vitro ADP-Glo™ kinase assay (Promega) after reacting with the proper concentration of human PDGFR-α(wt) enzyme, human PDGFR-β(wt), human c-KIT(wt) enzyme, and human c-KIT(D816V) enzyme with purified ATP and enzyme substrate at 25° C. for 1˜2 hours. At a ratio of 2:2:1, an enzyme-active reaction solution, an ADP-Glo reaction solution, and an enzyme-active detection solution were reacted to measure the inhibition of the enzyme's activity with luminoscence. Based on the […] of the enzyme activity of the solvent control that was not treated with the compound, the degree of enzyme activity inhibition was calculated according to the treatment concentration of each compound, and the concentration of each compound that inhibits 50% of enzyme activity was determined as IC50 (nM) value and the value was obtained by using GraphPad Prism 8.3.0 (GraphPad software Inc., San Diego) software. (A: IC50≤50 nM; B: 50 nM<IC50≤100 nM; C: 100 nM<IC50≤500 nM; D: IC50>500 nM).

Test [2] deals with Ba/F3-TEL-PDGFβ(WT). The test is described as follows: Proliferation inhibitory activity on Ba/F3 cell (CellTiter-Glo, 72 hours), PDGFR-β. The test is classed as cell-based. The settings on record: Mus musculus, BaF3, read-out: Ba/F3 (nM) Tel-PDGFRβ (GI50 class). As to the method: Ba/F3-TEL-PDGFRα(WT), Ba/F3-TEL-PDGFβ(WT), Ba/F3-c-KIT(D816V) (Kyinno, #KC-0138), c-KIT V560G/D816V, c-KIT D814Y were seeded at 3×10^3/100 μl/well in a clear bottom white 96-well plate. A culture solution containing compounds of 12 concentrations (0.00001-2 mM) serially diluted in 3 folds and the DMSO control group was added at 0.5 μl/well each to a final concentration of 0.00005-10 μM, and then incubated in a CO2 incubator at 37° C. for 72 hours. After 72 hours, the plate treated with the compound was taken out, CellTiter-Glo® Assay (Promega) solution was treated with 100 μl/well, followed by mixing well. After mixing well for about 10 minutes at room temperature, […] was measured using a microplate reader. The data were presented as percentages in proportion to treated cells based on the vehicle, GI50 (nM) values were calculated using GraphPad Prism 8.3.0 (GraphPad software Inc., San Diego).
The inhibitory activities of Ba/F3 expressing PDGFR-α, PDGFR-β, c-KIT(D816V), c-KIT V560G/D816V, and c-KIT D814Y measured as described above were measured and shown in Table 7 below (A: GI50≤200 nM; B: 200 nM<GI50≤500 nM; C: GI50>500 nM).
In general terms: Cellular ATP, detected with luciferase, serves as a proxy for viable cell number.

For test [3], the system named is Ba/F3-c-KIT(D816V). The test is described as follows: Proliferation inhibitory activity on Ba/F3 cell (CellTiter-Glo, 72 hours), c-KIT(D816V). The test is classed as cell-based. The conditions noted are these: Mus musculus, BaF3, read-out: Ba/F3 (nM) c-KIT (D816V) (GI50 class). The method, boiled down:
(§1)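 GI50 here reflects 72 h growth inhibition of engineered Ba/F3 lines dependent on PDGFRα, PDGFRβ or c-KIT mutants (D816V, V560G/D816V, D814Y). Compounds spanned 0.00005-10 μM final; CellTiter-Glo read-out.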

In test [4] the test system is c-KIT V560G/D816V. Kind of test: Proliferation inhibitory activity on Ba/F3 cell (CellTiter-Glo, 72 hours), c-KIT V560G/D816V. The test is classed as cell-based. The conditions noted are these: Mus musculus, BaF3, c-KIT V560G/D816V cells, read-out: Cell (nM) c-KIT V560G/D816V (GI50 class). In outline:
as §1

T1 sequence (P09619 33-1106): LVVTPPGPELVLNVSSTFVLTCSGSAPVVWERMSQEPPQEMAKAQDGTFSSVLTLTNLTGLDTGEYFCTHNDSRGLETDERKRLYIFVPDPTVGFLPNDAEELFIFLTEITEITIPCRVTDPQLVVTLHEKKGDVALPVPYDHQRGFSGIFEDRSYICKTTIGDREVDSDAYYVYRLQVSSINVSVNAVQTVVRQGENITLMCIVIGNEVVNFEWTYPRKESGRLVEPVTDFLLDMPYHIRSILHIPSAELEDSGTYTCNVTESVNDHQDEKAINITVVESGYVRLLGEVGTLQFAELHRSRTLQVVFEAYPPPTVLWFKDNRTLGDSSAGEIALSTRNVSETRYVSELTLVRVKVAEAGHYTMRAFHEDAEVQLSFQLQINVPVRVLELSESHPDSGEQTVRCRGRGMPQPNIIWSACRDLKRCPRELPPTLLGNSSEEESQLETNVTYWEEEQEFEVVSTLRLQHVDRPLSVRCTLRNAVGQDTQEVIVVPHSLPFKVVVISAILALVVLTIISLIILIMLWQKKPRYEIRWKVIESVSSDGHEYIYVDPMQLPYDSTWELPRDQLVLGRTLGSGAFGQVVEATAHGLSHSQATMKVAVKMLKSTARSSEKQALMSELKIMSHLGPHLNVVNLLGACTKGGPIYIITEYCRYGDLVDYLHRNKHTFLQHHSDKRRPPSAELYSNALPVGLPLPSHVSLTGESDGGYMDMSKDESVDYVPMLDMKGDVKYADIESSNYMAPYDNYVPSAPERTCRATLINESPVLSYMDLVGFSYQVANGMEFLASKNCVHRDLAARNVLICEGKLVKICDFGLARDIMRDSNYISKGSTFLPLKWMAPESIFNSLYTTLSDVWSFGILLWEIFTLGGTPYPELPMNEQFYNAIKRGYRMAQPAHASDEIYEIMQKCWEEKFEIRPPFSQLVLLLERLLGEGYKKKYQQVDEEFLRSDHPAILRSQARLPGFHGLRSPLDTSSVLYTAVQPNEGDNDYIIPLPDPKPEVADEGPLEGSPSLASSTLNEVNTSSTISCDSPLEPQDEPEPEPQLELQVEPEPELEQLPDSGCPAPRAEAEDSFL

What is called IC50 is the concentration needed to halve the response being measured. On to `COc1cc2c(-c3ccc(C(=O)NCc4ccc(C(F)(F)F)cc4)cc3)ncnc2cc1OCCCN1CCN(C)CC1` [Example 165, 4-(6-methoxy-7-(3-(4-methylpiperazin-1-yl)propoxy)quinazolin-4-yl)-N-(4-(trifluoromethyl)benzyl)benzamide], for which the IC50 in test [1] is at most 50 nM. Further, in test [2], the GI50 was at most 200 nM.

Take `COc1cc2c(-c3ccc(NC(=O)Cc4ccc5c(c4)OCO5)cc3)ncnc2cc1OCCCN1CCN(C)CC1` [Example 54, 2-(benzo[d][1,3]dioxol-5-yl)-N-(4-(6-methoxy-7-(3-(4-methylpiperazin-1-yl)propoxy)quinazolin-4-yl)phenyl)acetamide]: the IC50 in test [1] was at most 50 nM. In addition, the GI50 in test [2] was at most 200 nM.

On to `COCCN1CCC(COc2cc3ncnc(-c4ccc(NC(=O)Cc5ccc6c(c5)OCO6)c(F)c4)c3cc2OC)CC1` [Example 52, 2-(benzo[d][1,3]dioxol-5-yl)-N-(2-fluoro-4-(6-methoxy-7-((1-(2-methoxyethyl)piperidin-4-yl)methoxy)quinazolin-4-yl)phenyl)acetamide], for which the GI50 in test [2] is at most 200 nM.

On to `COc1cc2c(-c3ccc(C(=O)NCc4ccc(F)c(F)c4)cc3)ncnc2cc1OCCCN1CCN(C)CC1` [Example 167, N-(3,4-difluorobenzyl)-4-(6-methoxy-7-(3-(4-methylpiperazin-1-yl)propoxy)quinazolin-4-yl)benzamide], for which the IC50 in test [1] was at most 50 nM. For the same compound, the GI50 in test [2] is at most 200 nM.

`COc1cc2c(-c3ccc(NC(=O)Cc4ccc(C(F)(F)F)cc4)cc3)ncnc2cc1OCCCN1C[C@@H]2C[C@H]1CN2C` [Example 32, N-(4-(6-methoxy-7-(3-((1S,4S)-5-methyl-2,5-diazabicyclo[2.2.1]heptane-2-yl)propoxy)quinazolin-4-yl)phenyl)-2-(4-(trifluoromethyl)phenyl)acetamide]: the IC50 in test [1] is at most 50 nM. Moreover, the GI50 in test [3] and in test [4] was at most 200 nM in each case.

As to `COCCN1CCC(COc2cc3ncnc(-c4ccc(NC(=O)Cc5ccc6c(c5)OCO6)c(C)c4)c3cc2OC)CC1` [Example 53, 2-(benzo[d][1,3]dioxol-5-yl)-N-(4-(6-methoxy-7-((1-(2-methoxyethyl)piperidin-4-yl)methoxy)quinazolin-4-yl)-2-methylphenyl)acetamide], the GI50 in test [2] is at most 200 nM.

Turning to `COc1cc2ncnc(-c3ccc(NC(=O)Cc4ccc(C(F)(F)F)cc4)cc3)c2cc1OC(=O)N1CCN(C)CC1` [Example 132, 7-methoxy-4-(4-(2-(4-(trifluoromethyl)phenyl)acetamido)phenyl)quinazolin-6-yl 4-methylpiperazin-1-carboxylate], the GI50 is at most 200 nM in test [2], at most 200 nM in test [3] and above 500 nM in test [4].

In the case of `CCN1CCC[C@H](COc2cc3ncnc(-c4ccc(NC(=O)Cc5ccc(C(F)(F)F)cc5)cc4)c3cc2OC)C1` [Example 76, (S)-N-(4-(7-((1-ethylpiperidin-3-yl)methoxy)-6-methoxyquinazolin-4-yl)phenyl)-2-(4-(trifluoromethyl)phenyl)acetamide], the IC50 in test [1] was at most 50 nM. Also, the GI50 in test [3] and in test [4] was at most 200 nM each time.

For `COc1cc2c(-c3ccc(NC(=O)Cc4ccc(C(F)(F)F)cc4)c(C)c3)ncnc2cc1OCCCN1CCN(C)CC1` [Example 49, N-(4-(6-methoxy-7-(3-(4-methylpiperazin-1-yl)propoxy)quinazolin-4-yl)-2-methylphenyl)-2-(4-(trifluoromethyl)phenyl)acetamide], the IC50 in test [1] was at most 50 nM. Also, the GI50 in test [2] is at most 200 nM.

As to `COCCOc1cc2ncnc(-c3ccc(NC(=O)Cc4ccc(C(F)(F)F)nc4)cc3)c2cc1OC` [Example 118, N-(4-(6-methoxy-7-(2-methoxyethoxy)quinazolin-4-yl)phenyl)-2-(6-(trifluoromethyl)pyridin-3-yl)acetamide], the GI50 in test [2] and in test [4] was at most 200 nM in each case.

With `CCN1CCC[C@@H](COc2cc3ncnc(-c4ccc(NC(=O)Cc5ccc(C(F)(F)F)cc5)cc4)c3cc2OC)C1` [Example 74, (R)-N-(4-(7-((1-ethylpiperidin-3-yl)methoxy)-6-methoxyquinazolin-4-yl)phenyl)-2-(4-(trifluoromethyl)phenyl)acetamide], the IC50 in test [1] was at most 50 nM. The GI50 in test [3] and in test [4] was at most 200 nM throughout.

Regarding `CCN1CCC(COc2cc3ncnc(-c4ccc(NC(=O)Cc5ccc(Cl)nc5)cc4)c3cc2OC)CC1` [Example 70, 2-(6-chloropyridin-3-yl)-N-(4-(7-((1-ethylpiperidin-4-yl)methoxy)-6-methoxyquinazolin-4-yl)phenyl)acetamide], the IC50 in test [1] was at most 50 nM. The GI50 in test [3] and in test [4] was at most 200 nM each time.

`COc1cc2c(-c3ccc(NC(=O)Nc4cccc(C(F)(F)F)c4)cc3)ncnc2cc1OCCCN1CCN(C)CC1` [Example 169]: the GI50 in test [2] was at most 200 nM.

As for `CCN1CCC(COc2cc3ncnc(-c4ccc(NC(=O)Cc5ccc(C(F)(F)F)nc5)cc4)c3cc2OC)CC1` [Example 63, N-(4-(7-((1-ethylpiperidin-4-yl)methoxy)-6-methoxyquinazolin-4-yl)phenyl)-2-(6-(trifluoromethyl)pyridin-3-yl)acetamide], the IC50 in test [1] was at most 50 nM. Besides, the GI50 in test [3] and in test [4] was at most 200 nM throughout.

Turning to `COc1ccc(CC(=O)Nc2ccc(-c3ncnc4cc(OCCCN5CCN(C)CC5)c(OC)cc34)cc2)cn1` [Example 81, N-(4-(6-methoxy-7-(3-(4-methylpiperazin-1-yl)propoxy)quinazolin-4-yl)phenyl)-2-(6-methoxypyridin-3-yl)acetamide], the IC50 in test [1] is at most 50 nM. The GI50 in test [3] and in test [4] was at most 200 nM in each case.

Consider `CCN1CCC(COc2cc3ncnc(-c4ccc(NC(=O)Cc5cccc(C(F)(F)F)c5)cc4)c3cc2OC)CC1` [Example 64, N-(4-(7-((1-ethylpiperidin-4-yl)methoxy)-6-methoxyquinazolin-4-yl)phenyl)-2-(3-(trifluoromethyl)phenyl)acetamide], for which the half-maximal inhibitory concentration (IC50) in test [1] was at most 50 nM. The GI50 in test [3] and in test [4] was at most 200 nM throughout.

As to `COc1cc2ncnc(-c3ccc(NC(=O)Cc4ccc(C(F)(F)F)cc4)cc3)c2cc1OCCCN1CCOCC1` [Example 129, N-(4-(7-methoxy-6-(3-morpholinopropoxy)quinazolin-4-yl)phenyl)-2-(4-(trifluoromethyl)phenyl)acetamide], the IC50 in test [1] was at most 50 nM. Moreover, the GI50 in test [3] was at most 200 nM; in test [4], 200 to 500 nM.

As for `COc1cc2c(-c3ccc(NC(=O)Cc4ccc(C(F)(F)F)cc4)cc3)ncnc2cc1OCCCN1C2CC1CN(C)C2` [Example 37, N-(4-(6-methoxy-7-(3-(3-methyl-3,6-diazabicyclo[3.1.1]heptane-6-yl)propoxy)quinazolin-4-yl)phenyl)-2-(4-(trifluoromethyl)phenyl)acetamide], in test [1], the IC50 is at most 50 nM. Moreover, the GI50 in test [3] and in test [4] was at most 200 nM throughout.
